Biological target: T1, HPK1 kinase (aa1-346, Life Technologies) (Homo sapiens, UniProt Q92918)
T1 construct: HPK1 kinase (aa1-346, Life Technologies); purchased Life Technologies
T1 sequence (Q92918 1-346): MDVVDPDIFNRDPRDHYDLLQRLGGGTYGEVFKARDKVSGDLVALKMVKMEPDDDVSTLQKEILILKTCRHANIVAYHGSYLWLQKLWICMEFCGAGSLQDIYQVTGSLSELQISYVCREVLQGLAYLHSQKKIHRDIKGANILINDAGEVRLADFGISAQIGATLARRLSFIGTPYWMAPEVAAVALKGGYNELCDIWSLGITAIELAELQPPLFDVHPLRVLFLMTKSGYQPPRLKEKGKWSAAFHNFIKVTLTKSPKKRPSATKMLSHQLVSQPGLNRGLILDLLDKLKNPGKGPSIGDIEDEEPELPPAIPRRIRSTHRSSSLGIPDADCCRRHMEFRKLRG
Assay: HPK Kinase Activity Assay at 1 mM ATP (TR-FRET)
Format: biochemical
Settings: HPK1 kinase 40 nM, 0.5 μM STK1 substrate, read-out: Enzymatic activity IC50
Method: HPK Kinase Activity Assay at 1 mM ATP
Compounds disclosed herein were tested for inhibition of HPK1 kinase (aa1-346, Life Technologies) activity in assays based on the time-resolved fluorescence-resonance energy transfer (TR-FRET) methodology. The assays were carried out in 384-well low volume black plates in a reaction mixture containing HPK1 kinase (40 nM), 1 mM ATP, 0.5 μM STK1 substrate and 0-10 μM compound in buffer containing 50 mM HEPES, 0.01% BSA, 0.1 mM Orthovanadate, 10 mM MgCl2, 1 mM DTT, pH=7.0, 0.005% Tween-20. The kinase was incubated with the compounds disclosed herein or DMSO for 60 minutes at room temperature and the reaction was initiated by the addition of ATP and STK1 substrate. After reaction at room temperature for 120 minutes, an equal volume of stop/detection solution was added according to the manufacture's instruction (CisBio). The stop/detection solution contained STK Antibody-Cryptate and XL665-conjugated streptavidin in Detection Buffer. The TR-FRET signals (ratio of fluorescence emission at 665 nm over emission at 620 nm with excitation at 337 nm wavelength) were recorded on a PHERAstar FS plate reader (BMG Labtech). Phosphorylation of STK1 substrate led to the binding of STK Antibody-Cryptate to the biotinylated STK1 substrate, which places fluorescent donor (Eu^3+ crypate) in close proximity to the accepter (Streptavidin-XL665), thus resulting in a high degree of fluorescence resonance energy transfer. The inhibition of HPK1 in presence of increasing concentrations of compounds was calculated based on the ratio of fluorescence at 665 nm to that at 620 nm. The IC50 for each compound was derived from fitting the data to the four-parameter logistic equation by Graphpad Prism software.

Row | Compound | IC50
1 | CCOCCn1cc(Oc2nc(-c3cc(C)c4c(c3)CN(C)CC4)cnc2N)cn1 [Example 278, 5-(2,5-dimethyl-1,2,3,4-tetrahydroisoquinolin-7-yl)-3-((1-(2-ethoxyethyl)-1H-pyrazol-4-yl)oxy)pyrazin-2-amine] | 15 nM
2 | CNCCN(C)C(=O)c1cnn(-c2nc(-c3cc(C)c4c(c3)CN(C)CC4)cnc2N)c1 [Example 279, 1-(3-amino-6-(2,5-dimethyl-1,2,3,4-tetrahydroisoquinolin-7-yl)pyrazin-2-yl)-N-methyl-N-(2-(methylamino)ethyl)-1H-pyrazole-4-carboxamide] | 19 nM
3 | Cc1cc(-c2cnc(N)c(-n3cc(C(=O)N4CCC(F)(F)C4)cn3)n2)cc2c1CCN(C)C2 [Example 281, (1-(3-amino-6-(2,5-dimethyl-1,2,3,4-tetrahydroisoquinolin-7-yl)pyrazin-2-yl)-1H pyrazol-4-yl)(3,3-difluoropyrrolidin-1-yl)methanone] | 56 nM
4 | Cc1cc(-c2cnc(N)c(-n3cc(C(=O)N4CCN(C)CC4)cn3)n2)cc2c1CCN(C)C2 [Example 284, (1-(3-amino-6-(2,5-dimethyl-1,2,3,4-tetrahydroisoquinolin-7-yl)pyrazin-2-yl)-1H-pyrazol-4-yl)(4-methylpiperazin-1-yl)methanone] | 38 nM
5 | Cc1cc(-c2cnc(N)c(-n3cc(C(=O)NCCN4CCCC4)cn3)n2)cc2c1CCN(C)C2 [Example 285, 1-(3-amino-6-(2,5-dimethyl-1,2,3,4-tetrahydroisoquinolin-7-yl)pyrazin-2-yl)-N-(2-(pyrrolidin-1-yl)ethyl)-1H-pyrazole-4-carboxamide] | 14 nM
6 | Cc1cc(-c2cnc(N)c(C(=O)Nc3ccncc3)n2)cc2c1CCN(C)C2 [Example 287, 3-amino-6-(2,5-dimethyl-1,2,3,4-tetrahydroisoquinolin-7-yl)-N-(pyridin-4-yl)pyrazine-2-carboxamide] | 25 nM
7 | Cc1cc(-c2cnc(N)c(Oc3cnn(C(C)c4cccnc4)c3)n2)cc2c1CCN(C)C2 (centres unmarked) [Example 288, 5-(2,5-dimethyl-1,2,3,4-tetrahydroisoquinolin-7-yl)-3-(1-(1-(pyridin-3-yl)ethyl)-1H-pyrazol-4-yloxy)pyrazin-2-amine] | 17 nM
8 | CN1CCc2c(cc(-c3cnc(N)c(-n4cc(C(=O)N(C)C)cn4)n3)cc2NC2CC2)C1 [Example 290, 1-(3-amino-6-(5-(cyclopropylamino)-2-methyl-1,2,3,4-tetrahydroisoquinolin-7-yl)pyrazin-2-yl)-N,N-dimethyl-1H-pyrazole-4-carboxamide] | 16 nM
9 | Cc1cc(-c2cnc(N)c(Oc3cnn(CC4CCOCC4)c3)n2)cc2c1CCN(C)C2 [Example 293, 5-(2,5-dimethyl-1,2,3,4-tetrahydroisoquinolin-7-yl)-3-(1-((tetrahydro-2H-pyran-4-yl)methyl)-1H-pyrazol-4-yloxy)pyrazin-2-amine] | 37 nM
10 | CCS(=O)(=O)N1CC(n2cc(Oc3nc(-c4cc(C)c5c(c4)CN(C)CC5)cnc3N)cn2)C1 [Example 295, 5-(2,5-dimethyl-1,2,3,4-tetrahydroisoquinolin-7-yl)-3-(1-(1-(ethylsulfonyl)azetidin-3-yl)-1H-pyrazol-4-yloxy)pyrazin-2-amine] | 36 nM
11 | Cc1cc(-c2cnc(N)c(Oc3cnn(C4CN(S(=O)(=O)c5ccccc5)C4)c3)n2)cc2c1CCN(C)C2 [Example 296, 5-(2,5-dimethyl-1,2,3,4-tetrahydroisoquinolin-7-yl)-3-(1-(1-(phenylsulfonyl)azetidin-3-yl)-1H-pyrazol-4-yloxy)pyrazin-2-amine] | 67 nM
12 | Cc1cc(-c2cnc(N)c(-n3cc(C(=O)N(C)CCN4CCCC4)cn3)n2)cc2c1CCN(C)C2 [Example 302, 1-(3-amino-6-(2,5-dimethyl-1,2,3,4-tetrahydroisoquinolin-7-yl)pyrazin-2-yl)-N-methyl-N-(2-(pyrrolidin-1-yl)ethyl)-1H-pyrazole-4-carboxamide] | 54 nM
13 | Cc1cc(-c2cnc(N)c(Oc3cnn(CC(F)(F)F)c3)n2)cc2c1CCN(C)C2 [Example 303, 5-(2,5-dimethyl-1,2,3,4-tetrahydroisoquinolin-7-yl)-3-((1-(2,2,2-trifluoroethyl)-1H-pyrazol-4-yl)oxy)pyrazin-2-amine] | 16 nM
14 | Cc1cc(-c2cnc(N)c(-n3cc(C(=O)N(C)C4CCOC4)cn3)n2)cc2c1CCN(C)C2 (centres unmarked) [Example 306, 1-(3-amino-6-(2,5-dimethyl-1,2,3,4-tetrahydroisoquinolin-7-yl)pyrazin-2-yl)-N-methyl-N-(tetrahydrofuran-3-yl)-1H-pyrazole-4-carboxamide] | 89 nM

The next compounds have a lower IC50 than those just listed; values first:

Row | IC50 | Compound
15 | 6.5 nM | Cc1cc(-c2cnc(N)c(Oc3cnn(CCC#N)c3)n2)cc2c1CCN(C)C2 [Example 277, 3-(4-((3-amino-6-(2,5-dimethyl-1,2,3,4-tetrahydroisoquinolin-7-yl)pyrazin-2-yl)oxy)-1H-pyrazol-1-yl)propanenitrile]
16 | 6.6 nM | Cc1cc(-c2cnc(N)c(OCc3ccnc(N)c3O[C@H]3CCOC3)n2)cc2c1CCN(C)C2 [Example 282, (S)-3-((2-amino-3-((tetrahydrofuran-3-yl)oxy)pyridin-4-yl)methoxy)-5-(2,5-dimethyl-1,2,3,4-tetrahydroisoquinolin-7-yl)pyrazin-2-amine]
17 | 6.3 nM | COCCN(C)C(=O)c1cnn(-c2nc(-c3cc(C)c4c(c3)CN(C)CC4)cnc2N)c1 [Example 283, 1-(3-amino-6-(2,5-dimethyl-1,2,3,4-tetrahydroisoquinolin-7-yl)pyrazin-2-yl)-N-(2-methoxyethyl)-N-methyl-1H-pyrazole-4-carboxamide]
18 | 3.6 nM | Cc1cc(-c2cnc(N)c(-n3cc(C(=O)N(C)c4ccccc4Cl)cn3)n2)cc2c1CCN(C)C2 [Example 286, 1-(3-amino-6-(2,5-dimethyl-1,2,3,4-tetrahydroisoquinolin-7-yl)pyrazin-2-yl)-N-(2-chlorophenyl)-N-methyl-1H-pyrazole-4-carboxamide]
19 | 9.7 nM | CNc1cc(-c2cnc(N)c(-n3cc(C(=O)N(C)C)cn3)n2)cc2c1CCN(C)C2 [Example 289, 1-(3-amino-6-(2-methyl-5-(methylamino)-1,2,3,4-tetrahydroisoquinolin-7-yl)pyrazin-2-yl)-N,N-dimethyl-1H-pyrazole-4-carboxamide]
20 | 5.3 nM | CCOCCN(C)C(=O)c1cnn(-c2nc(-c3cc(C)c4c(c3)CN(C)CC4)cnc2N)c1 [Example 292, 1-(3-amino-6-(2,5-dimethyl-1,2,3,4-tetrahydroisoquinolin-7-yl)pyrazin-2-yl)-N-(2-ethoxyethyl)-N-methyl-1H-pyrazole-4-carboxamide]
21 | 6.6 nM | Cc1cc(-c2cnc(N)c(-n3cc(C(=O)NCC4CC4)cn3)n2)cc2c1CCN(C)C2 [Example 297, 1-(3-amino-6-(2,5-dimethyl-1,2,3,4-tetrahydroisoquinolin-7-yl)pyrazin-2-yl)-N-(cyclopropylmethyl)-1H-pyrazole-4-carboxamide]
22 | 4.2 nM | Cc1cc(-c2cnc(N)c(-n3cc(C(=O)NC4CC4)cn3)n2)cc2c1CCN(C)C2 [Example 298, 1-(3-amino-6-(2,5-dimethyl-1,2,3,4-tetrahydroisoquinolin-7-yl)pyrazin-2-yl)-N-cyclopropyl-1H-pyrazole-4-carboxamide]
23 | 8.9 nM | Cc1cc(-c2cnc(N)c(-n3cc(C(=O)NCCN4CCOCC4)cn3)n2)cc2c1CCN(C)C2 [Example 299, 1-(3-amino-6-(2,5-dimethyl-1,2,3,4-tetrahydroisoquinolin-7-yl)pyrazin-2-yl)-N-(2-morpholinoethyl)-1H-pyrazole-4-carboxamide]
24 | 7.5 nM | Cc1cc(-c2cnc(N)c(-n3cc(C(=O)NCc4ccc(F)cc4Cl)cn3)n2)cc2c1CCN(C)C2 [Example 300, 1-(3-amino-6-(2,5-dimethyl-1,2,3,4-tetrahydroisoquinolin-7-yl)pyrazin-2-yl)-N-(2-chloro-4-fluorobenzyl)-1H-pyrazole-4-carboxamide]
25 | 10 nM | Cc1cc(-c2cnc(N)c(-n3cc(C(=O)N(C)CC4CCOC4)cn3)n2)cc2c1CCN(C)C2 (centres unmarked) [Example 304, 1-(3-amino-6-(2,5-dimethyl-1,2,3,4-tetrahydroisoquinolin-7-yl)pyrazin-2-yl)-N-methyl-N-((tetrahydrofuran-3-yl)methyl)-1H-pyrazole-4-carboxamide]
26 | 8.9 nM | Cc1cc(-c2cnc(N)c(-n3cc(C(=O)NC4CCOC4)cn3)n2)cc2c1CCN(C)C2 (centres unmarked) [Example 305, 1-(3-amino-6-(2,5-dimethyl-1,2,3,4-tetrahydroisoquinolin-7-yl)pyrazin-2-yl)-N-(tetrahydrofuran-3-yl)-1H-pyrazole-4-carboxamide]

Reference: patent US12673933B2, “Aminopyrazine compounds as HPK1 inhibitor and the use thereof” (BEIGENE, LTD., priority 2019, dated 2026)
